Measurements from US20200297820A1, “STIMULATION OF HUMAN MEIBOMIAN GLAND FUNCTION” (The Schepens Eye Research Institute, Inc., priority 2013, published 2020).
“Also recorded” adds a separate entry of the source. Where two headings read alike, the source gives them in different places.

Assays:
Type in all cases: cell-based
[1] = test system: immortalized human meibomian gland epithelial cells; assay: LipidTOX green neutral lipid staining (lipid accumulation); details: for accumulation of neutral lipids: 10 nM, 6 days, differentiation media; for accumulation of lipid: days 1 to 7
Experimental: (§1) As an example of these experiments, immortalized human meibomian gland epithelial cells were cultured in the presence or absence of 10% fetal bovine serum. Cells were treated with an ethanol vehicle or azithromycin (10 μg/ml; Santa Cruz Biotechnology) for varying time periods. Cellular morphological appearance was recorded, cells were counted with a hemocytometer, and lipid accumulation was assessed by staining the cells with LipidTOX green neutral lipid stain (Invitrogen, Grand Island, N.Y.), according to reported methods. Staining fluorescent intensities were quantified by using ImageJ (http://rsbweb.nih.gov/ij/index.html). Statistical analyses were performed with Student's t-test (two-tailed, unpaired).
(§2) Immortalized human meibomian gland epithelial cells (IHMGECs; passages 20-22) were cultured in the presence or absence of 10% fetal bovine serum. Cells were treated with the ethanol vehicle or azithromycin (10 μg/mL) for varying periods. Cellular morphological appearance was recorded, cells were counted with a hemocytometer, and lipid accumulation was assessed by staining cells with LipidTOX green neutral lipid stain (Invitrogen Corp). Staining fluorescent intensities were quantified using ImageJ software (http://rsbweb.nih.gov/ij/index.html). Statistical analyses were performed with t test (2-tailed, unpaired).
Cell numbers were enumerated with a hemocytometer. Cellular lipid and lysosome accumulation were examined by staining cells with: Filipin III (a fluorometric probe for identifying unesterified cholesterol), LipidTOX green neutral lipid stain, and LysoTracker® Red DND-99 (a fluorescent technique designed for labeling acidic organelles such as lysosomes). Lysosomal lamellar bodies were identified by transmission electron microscopy. In brief, after culture and treatment on 24 mm polycarbonate membrane transwell inserts (0.4 μm pore size), cells were fixed in a solution of 2% formaldehyde+2.5% glutaraldehyde, in 0.08 M sodium cacodylate buffer, pH 7.4, post-fixed with 2% osmium tetroxide in 0.1 M sodium cacodylate buffer, and stained en bloc with 2% aqueousuranyl acetate. […] Cross sections (1 μM) were stained with 1% toluidine blue in 1% sodium tetraborate solution. Ultra-thin sections (60-90 nm) were imaged with a transmission electron microscope interfaced with a digital CCD camera. For biochemical assessments, cellular lipids were extracted with chloroform and methanol from samples with the same amount of protein. Lipids were then evaluated with high-performance thin-layer chromatography. With regard to the staining results, three Filipin, five LipidTox and four LysoTracker studies were conducted, and each experiment was performed in duplicate. Four random pictures were taken of each group, and four random areas were selected for the measurement of fluorescent intensities. The HPTLC experiments were performed in duplicate more than three times. Image data were quantified with ImageJ (http://rsbweb.nib.gov/ij/index.html). Electron microscopic analyses were performed in triplicate.
The experiment included green neutral lipid staining. Immortalized human meibomian gland epithelial cells were cultured in slides treated to facilitate cell growth in FBS-containing medium in the presence or absence of IGF-1, anti-IGF-1R, and/or GH. Media were replaced every 2 to 3 days for a total of 6 days, at which time cells were washed and fixed in 4% paraformaldehyde for 30 minutes. After additional washes, cells were stained with green neutral lipid stain in a humid chamber for 30 minutes. Coverslips were mounted on slides with an antifade reagent that contains 4′,6-diamidino-2-phenylindole nuclear stain and permitted to dry overnight before imaging with a microscope. Fluorescence intensity was quantified using image-processing software.

[2] = test system: immortalized human meibomian gland epithelial cells; assay: Cell proliferation, cells counted with a hemocytometer; details: for cell proliferation: 10 nM IGF-1 or 10 μg/mL AZM, 13 days, P<0.0001; for cell number: 10 nM
Experimental: as §1, §2
Regarding cell proliferation assay, the human meibomian gland epithelial cells and LNCaP cells were cultured in 12-well plates in designated media and then exposed to IGF-1 or GH for defined periods. At experimental termination, cells were trypsinized and counted with a hemocytometer.
FIGS. 10a, 10b, and 10c illustrate the influence of IGF-1 on the proliferation of human meibomian gland epithelial cells. Cells were cultured (100,000 cells/well in 12-well plates, 3 wells per group) in basal, proliferating, and/or differentiating media and treated with IGF-I for 2 to 6 days. […] P values are for post hoc comparison compared with the control value. […] ANOVA indicates analysis of variance; EGF-BPE, epidermal growth factor-bovine pituitary extract; KSFM, keratinocyte serum-free medium. All comparisons are with control value. Whiskers mark SEM. aP<0.05 compared with the control value, post hoc test.

[3] = test system: human meibomian gland epithelial cells; assay: Immunoblot of SREBP-1 and cyclins B1, D1; details: for amount of the precursor form of SREBP-1 protein: 10 nM, 6 days, differentiation media
Experimental: The disclosure turns now to sodium dodecyl sulfate-polyacrylamide gel, electrophoresis, and immunoblots. Cells were directly lysed in Laemmli buffer supplemented with 1% protease inhibitor cocktail (Sigma-Aldrich) and 5% β-mercaptoethanol (Sigma-Aldrich). Lysates were heated at 95° C. for 10 minutes, separated by sodium dodecyl sulfate-polyacrylamide gel electrophoresis on 10% Tris-glycine precast gels, and transferred to polyvinylidene difluoride membranes. Rabbit or mouse antibodies used were specific for phosphorylated Akt (p-Akt), pan-Akt, p-FoxO1, FoxO1, p-JAK2, JAK2, and β-actin; for p-ERK, ERK-2, STAT5, and the precursor form of SREBP-1; and for p-STAT5. Membranes were blocked with 5% bovine serum albumin in Tris-buffered saline containing 0.01% polysorbate 20. All primary antibodies were diluted to 1:1000 in blocking buffer except for p-Akt (1:4000), p-ERK (1:2000), ERK-2 (1:4000), SREBP-1 (1:200), and β-actin (1:10 000). Horseradish peroxidase-conjugated secondary antibodies were goat anti-rabbit IgG and Fc-specific goat anti-mouse IgG diluted to 1:5000. Proteins were visualized with enhanced chemiluminescent substrate or with ultrasensitive chemiluminescent substrate. Densitometry was performed with image-processing software.
Turning to the influence of IGF-1 and GH on SREBP-1 expression and lipid accumulation, the experiments examined whether IGF-1 stimulates SREBP-1 expression and lipid accumulation in human meibomian gland epithelial cells. Cells were cultured for 6 days in differentiation media with IGF-1 and then processed the cells for protein and histologic analysis.
FIGS. 11a, 11b, 11c, and 11d illustrate the effect of IGF-1 on sterol regulatory element-binding protein (SREBP-1) expression and lipid accumulation in human meibomian gland epithelial cells. Cells were exposed to IGF-1 or growth hormone (GH) for 6 days in differentiation media and then processed for the analysis of the precursor form of SREBP-1 protein. […] represents 4′,6-diamidino-2-phenylindole nuclear staining. The SREBP-1 densitometry, normalized to that of β-actin, and neutral lipid staining fluorescence intensity (6 field views per treatment condition) were quantified by using image-processing software. These experiments were repeated at least 3 times with similar results. ANOVA indicates analysis of variance; AU, arbitrary units. Whiskers represent SEM.
FIGS. 15a, 15b, 15c, and 15d illustrate the effect of IGF-1, AZM, and IFG-1+AZM combination on the expression of SREBP-1, cyclins B1, and D1. Cells were incubated with vehicle, 10 nM IGF-1, 10 μg/mL AZM, or IGF-1+AZM combination for 5 days. Cell lysates were evaluated on immunoblots for precursor and mature forms of SREBP-1, cyclins B1 and D1. FIG. 15a quantifies the protein band intensities using ImageJ. […] These experiments were repeated at least three times with similar results.

[4] = 10 nM IGF-1 or 10 μg/mL AZM, 5 days
[5] = azithromycin 10 μg/ml vs vehicle

| Compound | accumulation of neutral lipids [1] | proliferation [2] | cell proliferation [2] | cell number ([2]; 10% FBS-containing medium, 2 to 6 days) | cell number ([2]; keratinocyte serum-free medium alone or with EGF-BPE, 2 days) | expression of pre-SREBP-1 ([3]; 10 nM IGF-1, 5 days) | expression of cyclin B1 [3, 4] | expression of mature SREBP-1 [3, 4] | amount of the precursor form of SREBP-1 protein [3] | expression of SREBP-1 protein ([3]; IGF-1 10 nM, alone or with GH and/or DHT) | fluorescence intensity of LipidTOX staining ([1]; 10 μg/mL, 13 days, two-way ANOVA P<0.0001) | accumulation of neutral lipids (LipidTOX) ([1]; 10 μg/ml, 5 days) | time to marked increase of number, size and staining intensity of intracellular lipid-containing vesicles [1, 5] [days] | accumulation of lipid [1, 5] | accumulation of lipid ([1]; azithromycin 10 μg/ml vs vehicle, listed as azithromycin) | proliferation ([2]; azithromycin 10 μg/ml, absence and presence of serum, days 1 to 7) | expression of SREBP-1 protein ([3]; azithromycin 10 μg/ml) | proliferation ([2]; any of the media, doses 0.1 to 100 nM) |
| --- | --- | --- | --- | --- | --- | --- | --- | --- | --- | --- | --- | --- | --- | --- | --- | --- | --- | --- |
| IGF-1: recombinant human insulin-like growth factor 1 | increase in the accumulation of neutral lipids | increases the proliferation | significant but opposite effect | increase in cell number | not under basal conditions | significantly affected | significantly affected | significantly affected | rise in the amount of the precursor form of SREBP-1 protein | significant increase in the expression of SREBP-1 protein | – | – | – | – | – | – | – | – |
| CC[C@H]1OC(=O)[C@H](C)[C@@H](O[C@H]2C[C@@](C)(OC)[C@@H](O)[C@H](C)O2)[C@H](C)[C@@H](O[C@@H]2O[C@H](C)C[C@H](N(C)C)[C@H]2O)[C@](C)(O)C[C@@H](C)CN(C)[C@H](C)[C@@H](O)[C@]1(C)O [Azithromycin] | – | – | significant but opposite effect | – | – | – | – | significant effect | – | – | significant effect | significantly stimulates the accumulation | ≤ 3 | striking, time-dependent accumulation of lipid | time-dependent accumulation of lipids; also recorded: striking, time-dependent accumulation of lipid | generally reduced the proliferation | increased expression | – |
| GH: human growth hormone | not duplicated | – | – | – | – | – | – | – | not duplicated | – | – | – | – | – | – | – | – | no influence on the proliferation |
